Assays:
[1] = test system: C. albicans (strain SC-5134); experiment: FITC-labeled Annexin V staining of protoplasts (phosphatidylserine externalization); type: cell-based, Candida albicans; details: 1.0 μM Pc 4-PDT, 2.0 J/cm^2, within 4 to 5 hours of PDT
Method: Cells were then incubated for 4 hr before staining with FITC-labeled Annexin V. FIG. 4(a) provides confocal images of FITC-labeling of cells that had been treated with H2O2 or Pc 4-PDT. Scale bar, 20 μm. FIG. 4(b) provides a bar graph showing the results. For each experiment over 50-100 protoplasts cells were counted per sample. […] Cells were counted by eye using a Zeiss AxiovertTM S100 inverted epifluorescence microscope. Values represent the mean±S.E. from at least three independent experiments. […] Apoptosis Analyses: (A) FITC-labeled Annexin V staining-To assess the externalization of phosphatidylserine, protoplasts of C. albicans were stained with FITC-labeled Annexin V using the Annexin V-FLUOS staining kit (Roche, Germany) with minor modifications. Madeo et al., J Cell Biol 139:729-734 (1997); Park et al., Biochem Biophys Res Commun 394:170-172 (2010). Briefly, control and treated cells were washed three times with 1× PBS before incubating at 37° C. for 30 min in a protoplasting solution (50 mM KH2PO4, 5 mM EDTA and 50 mM DTT). Then cells were digested at 37° C. for 45 min in an enzyme solution (50 mM K2HPO4, 40 mM 2-mercaptoethanol, 3 μg/mL Chitinase, 1.8 μg/mL […], 0.15 mg/mL Zymolyase and 2.4 M sorbitol). 1× PBS was added to each sample and incubated for 30 min at room temperature in all experiments. Protoplasts were then incubated with 100 μL of Annexin V-FLUOS labeling solution for 15 min at 25° C. FITC-labeled Annexin V fluorescence was detected by both widefield (Leica DMI6000B microscope; Leica Microsystems, Inc., Bannockburn, Ill., USA) and confocal fluorescence microscopy.

T. rubrum = experiment: Turbidity growth assay of microconidia after Pc 4-PDT; type: cell-based, Trichophyton rubrum; details: Pc 4 up to 2 μM, 2.0 J/cm^2
Method: Terbinafine sensitive (23013) and resistant (MRL666) strains of T. rubrum were grown onto Sabouraud potato agar plate for at least 24 hours at 28° C. Microconidia were separated from most of the hyphae form before treating with Pc 4-PDT.

[2] = topical application; cited from earlier work
[3] = mice, delivered systemically; cited from earlier work

## CN(C)CCC[Si](C)(C)O[Si]1(O)n2c3c4ccccc4c2N=C2N=C(N=c4c5ccccc5c(n41)=NC1=NC(=N3)c3ccccc31)c1ccccc12 (centres unmarked) [Pc 4, HOSiPcOSi(CH3)2(CH2)3N(CH3)2]
[1]
  Annexin V positive cells: 20%
T. rubrum; terbinafine resistant strain MRL666
  growth of microconidia: inhibited by Pc 4-PDT in a dose response fashion
T. rubrum; terbinafine sensitive strain 23013
  growth of microconidia: inhibited by Pc 4-PDT in a dose response fashion
[2]
  penetration through stratum corneum and epidermis: penetrate through the stratum corneum and epidermis
[3]
  clearance compared with Photofrin: much more rapidly cleared than Photofrin

— patent publication US20120265121A1, “PHTHALOCYANINE-BASED ANTIFUNGAL AGENTS” (CASE WESTERN RESERVE UNIVERSITY, priority 2011, published 2012)
